Converted amounts (≈) assume the structure as drawn. Like-named read-outs stand apart in the source and are kept apart here. Residues, ends and D or L forms follow the SMILES beside them.
Columns and labels:
Assay type in all cases: cell-based
[1] = system: E. coli
Description: (§1) In vitro anti-bacterial activity of EC5. The test microorganisms mentioned earlier in the experimental procedures were used to evaluate the bactericidal activity of EC5 peptide. The minimum inhibitory concentrations (MICs) of the peptide were determined by standard dilution assay as recommended by Clinical and Laboratory Standard Institutes (CLSI) guidelines (Azad, M. A., et al., (2011) Antimicrob. Agents Chemother. 55, 2137-2145). Bacteria were grown to mid-logarithmic phase in cation-supplemented Mueller-Hinton broth (MHB) (Becton Dickinson, Sparks, Md.) on an orbital shaker (37° C.) and diluted to a 0.5 McFarland standard to a final volume of 1 ml. Decreasing concentrations of the peptide were incubated with the microorganisms. Results were recorded by visual inspection after 24 h of incubation at 37° C. Assay was repeated three separate times to ensure reproducibility. […] EC5 concentrations 0x, 0.5x, 1x, and 2×MIC were incubated with logarithmic phase of bacteria of approximately 10^5 CFU/ml in an orbital shaker for 48 h at 37° C. Samples were drawn and plated on NA plates. Polymyxin B was used as a positive control and peptide with no anti-bacterial activity from our previous studies was used as a negative control.

[2] = system: K pneumoniae
Description: as §1

[3] = system: P. aeruginosa
Description: as §1

[4] = system: B. cereus; assay: MIC by standard dilution assay (CLSI)
Description: as §1

[5] = system: Gram-positive strains; assay: MIC by standard dilution assay (CLSI)
Description: as §1

[6] = system: S. aureus; assay: MIC by standard dilution assay (CLSI)
Description: as §1

[7] = system: S. epidermidis; assay: MIC by standard dilution assay (CLSI)
Description: as §1

[8] = system: E. coli; assay: Time-kill kinetics
Description: as §1

[9] = system: P. aeruginosa; assay: Time-kill kinetics; conditions: P. aeruginosa ATCC 12121; 27853
Description: as §1

[10] = system: B. cereus; assay: Anti-bacterial activity in spiked plasma; conditions: even at 50 μg/ml
Description: (§2) The anti-bacterial activity of the peptide in the presence of homologous plasma and platelets were assessed. Platelet Concentrates (PCs) in bags were obtained and stored at room temperature as described earlier (Mohan, K. V. et al., (2010) Transfusion 50, 166-173). Plasma was isolated from the PC bag by collecting 25 ml of PCs and subjecting the sample to a low speed centrifugation step to separate PLT-rich plasma from plasma. For assays log phase cultures of bacteria grown in Luria-Bertani (LB) broth were centrifuged at 3000×g and suspended in 1×PBS pH7.4. Bacterial titers were estimated by measuring the optical density (OD) and microscopy. Approximately 10^5 CFU/ml of each bacterial strain was spiked into 0.1 ml of plasma or platelets and incubated with peptide at concentrations ranging from 50 to 0 μg/ml. Incubation was carried out at room temperature for 2 h on a shaker. At the end of 2-h exposure period, a fixed volume of the suspension was plated on NA plates, and incubating at 37° C. for 18 to 24 h. Bactericidal activity was measured by log-reduction by viable bacteria.

[11] = system: E. coli; assay: Anti-bacterial activity in spiked plasma; conditions: 2 h
Description: as §2

[12] = system: K pneumoniae; assay: Anti-bacterial activity in spiked plasma; conditions: 2 h
Description: as §2

[13] = system: P. aeruginosa; assay: Anti-bacterial activity in spiked plasma; conditions: 2 h
Description: as §2

[14] = system: S. aureus; assay: Anti-bacterial activity in spiked plasma; conditions: even at 50 μg/ml
Description: as §2

[15] = system: S. epidermidis; assay: Anti-bacterial activity in spiked plasma; conditions: even at 50 μg/ml
Description: as §2

[16] = system: E. coli; assay: ATP inhibition (BACTITER-GLO); conditions: EC5 at lowest concentration of 3.125 μg/ml
Description: (§3) The effects of EC5 on ATP inhibition as a measure of metabolic activity of E. coli and P. aeruginosa cells was determined by using BACTITER-GLO™ assay kit (Promega) according to the manufacturer's protocol. The luminescent signal correlates with the number of viable microbial cells based on the amount of ATP present after the addition of different concentrations of the peptide. Polymyxin B was included as a positive control.
(§4) ATP inhibition as a measurement of microbial viability was measured using BacTiter-Glo kit ([…]). Intracellular ATP levels of E. coli and P. aeruginosa were examined after the addition of different concentrations of EC5 (FIG. 9D). ATP inhibition began 5 min after the addition of EC5 at lowest concentration of 3.125 μg/ml which was slightly lower than the MIC of 8 μg/ml for E. coli and P. aeruginosa.

[17] = system: P. aeruginosa; assay: ATP inhibition (BACTITER-GLO); conditions: EC5 at lowest concentration of 3.125 μg/ml
Description: as §3, §4

CC[C@H](C)[C@H](NC(=O)[C@H](CCCCN)NC(=O)[C@H](CCCNC(=N)N)NC(=O)[C@H](Cc1ccccc1)NC(=O)[C@H](CC(C)C)NC(=O)[C@H](CC(C)C)NC(=O)[C@@H](N)CCCNC(=N)N)C(=O)N[C@@H](CCCNC(=N)N)C(=O)N[C@@H](CCCNC(=N)N)C(=O)N[C@@H](CC(C)C)C(=O)N[C@@H](CCCCN)C(=O)N[C@@H](CCCNC(=N)N)C(=O)O [EC5, RLLFRKIRRLKR] (H-RLLFRKIRRLKR-OH; N-terminus and C-terminus assumed)
MIC [1]: 8 µg/mL (≈ 4.83 µM) | Minimum Bactericidal Concentration (MBC) [1]: 8 µg/mL | MIC [2]: 64 to 128 µg/mL | MIC [3]: 16 to 32 µg/mL | Minimum Bactericidal Concentration (MBC) [3]: 8 µg/mL | MIC ([3]; P. aeruginosa ATCC 27853): 8 µg/mL (≈ 4.83 µM) | MIC ([3]; P. aeruginosa, strain not named): 8 µg/mL (≈ 4.83 µM) | activity against B. cereus [4]: not active | activity against Gram-positive strains [5]: no activity | activity against S. aureus [6]: not active | activity against S. epidermidis [7]: not active | reduction of E. coli ([8]; 4 μg/ml, around 45 min of exposure): 2-3 log10 CFU/ml | regrowth ([8]; E. coli ATCC 700928, 25922): no regrowth until 24 hrs | time to complete inhibition ([8]; E. coli ATCC 700928, 25922): 5 min | killing of E. coli ([8]; MBC concentration of 8 μg/ml): complete killing | regrowth [9]: no regrowth until 24 hrs | time to complete inhibition [9]: 5 min | reduction of B. cereus in plasma [10]: failed to cause a significant reduction | reduction of E. coli in plasma ([11]; EC5 12.5 μg/ml): 3.5 log10 | reduction of E. coli in plasma ([11]; EC5 25 μg/ml): 4.5 log10 | bactericidal activity in homologous plasma, in words ([11]; EC5 50 μg/ml): inhibited | reduction of E. coli in plasma ([11]; EC5 50 μg/ml): around 5 log10 CFU/ml | reduction of K pneumoniae in plasma ([12]; EC5 25 μg/ml): around 1.5 log10 | reduction of K pneumoniae in plasma ([12]; EC5 50 μg/ml): around 2.5 log10 | reduction of P. aeruginosa in plasma ([13]; EC5 12.5 μg/ml): ~3 log10 CFU/ml | reduction of P. aeruginosa in plasma ([13]; EC5 25 μg/ml): around 4 log10 CFU/ml | bactericidal activity in homologous plasma, in words ([13]; EC5 50 μg/ml): inhibited | reduction of P. aeruginosa in plasma ([13]; EC5 50 μg/ml): around 5 log10 CFU/ml | reduction of S. aureus in plasma [14]: failed to cause a significant reduction | reduction of S. epidermidis in plasma [15]: failed to cause a significant reduction | time at which ATP inhibition began [16]: 5 min | time at which ATP inhibition began [17]: 5 min
